This passage reports IC50 results from patent publication EP4782453A1 (Beyang Therapeutics Co., Ltd., priority 2023, dated 2025).

The target of the first test is T1, Menin-MLL (Homo sapiens, UniProt O00255).
T1 construct: His-Menin (M1-L615 end); purchased BIORTUS BP9210
T1 sequence (O00255 1-615 isoform O00255-1): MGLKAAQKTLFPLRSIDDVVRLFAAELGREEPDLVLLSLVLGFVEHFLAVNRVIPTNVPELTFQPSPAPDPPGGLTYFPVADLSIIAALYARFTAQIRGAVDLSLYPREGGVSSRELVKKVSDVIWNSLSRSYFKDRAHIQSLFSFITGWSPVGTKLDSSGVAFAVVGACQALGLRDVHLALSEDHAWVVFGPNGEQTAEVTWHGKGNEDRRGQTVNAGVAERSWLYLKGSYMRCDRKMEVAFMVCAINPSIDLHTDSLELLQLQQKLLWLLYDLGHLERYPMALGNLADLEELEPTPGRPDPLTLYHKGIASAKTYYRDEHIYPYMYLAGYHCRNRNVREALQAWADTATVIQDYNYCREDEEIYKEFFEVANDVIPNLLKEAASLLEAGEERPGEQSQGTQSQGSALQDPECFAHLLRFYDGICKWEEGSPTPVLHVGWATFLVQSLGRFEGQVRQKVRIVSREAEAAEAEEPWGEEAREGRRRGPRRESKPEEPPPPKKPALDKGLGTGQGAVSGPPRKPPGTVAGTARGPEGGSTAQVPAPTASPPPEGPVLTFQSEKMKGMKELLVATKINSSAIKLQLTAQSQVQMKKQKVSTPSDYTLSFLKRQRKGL
Kind of test: Inhibitory activity against Menin-MLL binding (fluorescence polarization). The conditions noted are these: Menin-MLL IC50, fluorescence polarization; 150 nM His-Menin, 15 nM FITC-MLL; 25°C for 60 min. On the procedure:
• His-Menin (M1-L615 end), purchased from BIORTUS, Catalog Number: BP9210; and • FITC-MLL4-43, purchased from GenScript, Catalog Number: C491HFF190-3/PE1324.
In a 10 µL reaction solution (20 mM HEPES, pH 7.5, 50 mM NaCl, 1 mM DTT, 0.01% BSA) containing any compound from the examples, 150 nM His-Menin was added to a 384-well plate (Corning, Model: 4514). Each concentration was set up in duplicate wells. After centrifugation at 1000 RPM for 1 min, the plate was incubated at 25°C for 15 min. Then, 15 nM […] (20 mM HEPES, pH 7.5, 50 mM NaCl, 1 mM DTT, 0.01% BSA) was added to a 384-well plate. After centrifugation at 1000 RPM for 1 min, the reaction proceeded at 25°C for 60 min. Changes in fluorescence polarization were measured using a plate reader (PerkinElmer, Envision 2104). Based on the measured signals, the binding inhibition rate of the compound at each concentration was calculated, and the IC50 (half-maximal inhibitory concentration) of the compound was determined using statistical analysis software GraphPad Prism (GraphPad Software, Inc.) by means of a nonlinear fitting formula: 4-Parameter Logistic Model or Sigmoidal Dose-Response Model: Y = Bottom + (Top−Bottom)/(1 + 10^((LogIC50−X) × Hill Slope)), [formula] in which X indicates the logarithm of compound concentration, Y indicates a fluorescence polarization mP value, and Top and Bottom indicate the maximum and minimum readouts of fluorescence polarization mP values. Table 1: Inhibitory Activity of Compounds Against Menin-MLL Binding
In general terms: Polarisation of emitted light reports the rotation of a fluorescent probe.
Turning to `CCN(C(=O)c1cc(F)ccc1-c1cc(C2CCN(C[C@H]3CC[C@H](NS(=O)(=O)CC)CC3)C2)nc2c1cnn2C)C(C)C` (mixture of isomers) [Example 11, N-ethyl-5-fluoro-2-[1-methyl-6-(1-{[(1r,4r)-4-ethanesulfonamidocyclohexyl]methyl}pyrrolidin-3-yl)-1H-pyrazolo[3,4-b]pyridin-4-yl]-N-(isopropyl)benzamide], the IC50 (as a rule, the concentration that inhibits the measured activity by half) came out at 155 nM. Still for that read-out and setting: then `CCN(C(=O)c1cc(F)ccc1-c1cc(C2CCN(C[C@H]3CC[C@H](NS(=O)(=O)CC)CC3)C2)cn2cncc12)C(C)C` (mixture of isomers) [Example 22, N-ethyl-5-fluoro-N-isopropyl-2-[6-(1-{[(1r,4r)-4-ethanesulfonamidocyclohexyl]methyl}pyrrolidin-3-yl)imidazo[1,5-a]pyridin-8-yl]benzamide], with 25 nM; and `CCN(C(=O)c1cc(F)ccc1-c1cc(C2CCN(C[C@H]3CC[C@H](NS(=O)(=O)CC)CC3)C2)cc2cncn12)C(C)C` (mixture of isomers) [Example 25, N-ethyl-5-fluoro-N-isopropyl-2-[7-(1-{[(1r,4r)-4-ethanesulfonamidocyclohexyl]methyl}pyrrolidin-3-yl)imidazo[1,5-a]pyridin-5-yl]benzamide], with 19 nM. Still for that read-out and setting: the result for `CCN(C(=O)c1cc(F)ccc1-c1cc(C2CCN(C[C@H]3CC[C@@H](NS(=O)(=O)CC)CC3)C2)cc2cncn12)C(C)C` (mixture of isomers) [Example 26, N-ethyl-5-fluoro-N-isopropyl-2-[7-(1-{[(1s,4s)-4-ethanesulfonamidocyclohexyl]methyl}pyrrolidin-3-yl)imidazo[1,5-a]pyridin-5-yl]benzamide] reads 44.5 nM; that for `CCN(C(=O)c1cc(F)ccc1-c1cc(C2CCN(C[C@H]3CC[C@H](NS(=O)(=O)CC)CC3)C2)cc2cnc(C)n12)C(C)C` (mixture of isomers) [Example 35, N-ethyl-5-fluoro-2-[3-methyl-7-(1-{[(1r,4r)-4-ethanesulfonamidocyclohexyl]methyl}pyrrolidin-3-yl)imidazo[1,5-a]pyridin-5-yl]-N-(isopropyl)benzamide], 39.5 nM; that for `CCN(C(=O)c1cc(F)ccc1-c1cc(C2CCN(C[C@]3(F)CC[C@H](NS(=O)(=O)CC)CC3)C2)cn2c(C)ncc12)C(C)C` (stereo partly shown) [Compound 51, N-ethyl-5-fluoro-2-[3-methyl-6-(1-{[(1r,4r)-4-ethanesulfonamido-1-fluorocyclohexyl]methyl}pyrrolidin-3-yl)imidazo[1,5-a]pyridin-8-yl]-N-(isopropyl)benzamide], 64 nM. `CCN(C(=O)c1cc(F)ccc1-c1cc(C2CCN(C[C@]3(F)CC[C@@H](NS(=O)(=O)CC)CC3)C2)cn2c(C)ncc12)C(C)C` (stereo partly shown) [Compound 52, N-ethyl-5-fluoro-2-[3-methyl-6-(1-{[(1s,4s)-4-ethanesulfonamido-1-fluorocyclohexyl]methyl}pyrrolidin-3-yl)imidazo[1,5-a]pyridin-8-yl]-N-(isopropyl)benzamide] registered an IC50 of 28.5 nM.

Take `CCN(C(=O)c1cc(F)ccc1-c1cc(C2CCN(C[C@]3(O)CC[C@@H](NS(=O)(=O)CC)CC3)C2)cc2c1cnn2C)C(C)C` (stereo partly shown) [Compound 55, N-ethyl-5-fluoro-2-[1-methyl-6-(1-{[(1s,4s)-4-ethanesulfonamido-1-hydroxylcyclohexyl]methyl}pyrrolidin-3-yl)-1H-indazol-4-yl]-N-(isopropyl)benzamide]: the IC50 was 21 nM.

The compound `CCN(C(=O)c1cc(F)ccc1-c1cc([C@@H]2CCN(C[C@]3(O)CC[C@@H](NS(=O)(=O)CC)CC3)C2)cc2c1cnn2C)C(C)C` [Compound 55-2-1, N-ethyl-5-fluoro-2-[1-methyl-6-[(3S)-1-{[(1s,4s)-4-ethanesulfonamido-1-hydroxylcyclohexyl]methyl}pyrrolidin-3-yl]-1H-indazol-4-yl]-N-(isopropyl)benzamide] returned an IC50 of 343 nM.

The test is the same for the next values; noted with them: fluorescence polarization; 150 nM His-Menin, 15 nM FITC-MLL; 25°C for 60 min; read-out: Menin-MLL IC50.
Turning to `CCN(C(=O)c1cc(F)ccc1-c1cc(C2CCN(C[C@H]3CC[C@H](NC(=O)OC(C)(C)C)CC3)C2)cn2cncc12)C(C)C` (mixture of isomers) [Example 21, N-[(1r,4r)-4-{[3-(8-{2-[ethyl(isopropyl)aminoformyl]-4-fluorophenyl}imidazo[1,5-a]pyridin-6-yl)pyrrolidin-1-yl]methyl}cyclohexyl]tert-butyl carbamate], the IC50 came out at 18.5 nM.

On to `CCN(C(=O)c1cc(F)ccc1-c1cc(C2CCN(C[C@H]3CC[C@H](NC(=O)OC(C)(C)C)CC3)C2)cn2c(C)ncc12)C(C)C` (mixture of isomers) [Example 29, N-[(1r,4r)-4-{[3-(8-{2-[ethyl(isopropyl)aminoformyl]-4-fluorophenyl}-3-methylimidazo[1,5-a]pyridin-6-yl)pyrrolidin-1-yl]methyl}cyclohexyl]tert-butyl carbamate], for which the IC50 was found to be 10.5 nM. Same read-out and setting: the result for `CC(C)N(CC(F)F)C(=O)c1cc(F)ccc1-c1cc(C2CCN(CCN3CCC(NC(=O)OC(C)(C)C)CC3)C2)cc2c1cnn2C` (racemic) [Example 166, N-(1-{2-[3-(4-{2-[(2,2-difluoroethyl)(isopropyl)aminoformyl]-4-fluorophenyl}-1-methyl-1H-indazol-6-yl)pyrrolidin-1-yl]ethyl}piperidin-4-yl)tert-butyl carbamate] reads 271 nM. For `C=C1C[C@@H]2CC[C@H]1[C@@H](C(=O)N1CCC(c3cc(-c4ccc(F)cc4C(=O)N(CC)C(C)C)c4cncn4c3)CC1)N2` [Compound 39, N-ethyl-5-fluoro-2-(6-{1-[(1S,3S,4R)-5-methylene-2-azabicyclo[2.2.2]octan-3-carbonyl]piperidin-4-yl}imidazo[1,5-a]pyridin-8-yl)-N-(isopropyl)benzamide], the IC50 stood at 137 nM. `CCN(C(=O)c1cc(F)ccc1-c1cc(N2CCN(C(=O)[C@H]3N[C@@H]4CC[C@H]3C4)CC2)cn2cncc12)C(C)C` [Compound 40, 2-(6-{4-[(1R,3S,4S)-2-azabicyclo[2.2.1]heptan-3-carbonyl]piperazin-1-yl}imidazo[1,5-a]pyridin-8-yl)-N-ethyl-5-fluoro-N-(isopropyl)benzamide]: the IC50 came out at 83 nM. On the same count and under the same terms, the result for `CCN(C(=O)c1cc(F)ccc1-c1cc(C2CCN(CC3(O)CCC(NC(=O)OC(C)(C)C)CC3)C2)cn2c(C)ncc12)C(C)C` (stereo not shown) [Compound 50, N-(4-{[3-(8-{2-[ethyl(isopropyl)aminoformyl]-4-fluorophenyl}-3-methylimidazo[1,5-a]pyridin-6-yl)pyrrolidin-1-yl]methyl}-4-hydroxylcyclohexyl)tert-butyl carbamate] reads 14 nM; that for `CCN(C(=O)c1cc(F)ccc1-c1cc(C2CCN(C[C@]3(O)CC[C@@H](NC(=O)OC(C)(C)C)CC3)C2)cc2c1cnn2C)C(C)C` (stereo partly shown) [Compound 54, N-[(1s,4s)-4-{[3-(4-{2-[ethyl(isopropyl)aminoformyl]-4-fluorophenyl}-1-methyl-1H-indazol-6-yl)pyrrolidin-1-yl]methyl}-4-hydroxylcyclohexyl]tert-butyl carbamate], 105 nM; that for `CCN(C(=O)c1cc(F)ccc1-c1cc([C@H]2CCN(CC3(O)CCC(NS(=O)(=O)CC)CC3)C2)cc2c1cnn2C)C(C)C` (stereo partly drawn) [Compound 55-1-2, N-ethyl-5-fluoro-2-[1-methyl-6-[(3R)-1-{[(1r,4r)-4-ethanesulfonamido-1-hydroxylcyclohexyl]methyl}pyrrolidin-3-yl]-1H-indazol-4-yl]-N-(isopropyl)benzamide], 120 nM.

For the compound `CCN(C(=O)c1cc(F)ccc1-c1cc(N2CCC(NCC3(F)CCC(NS(=O)(=O)CC)CC3)CC2)cn2c(C)ncc12)C(C)C` (stereo not shown) [Compound 57, 2-[6-(4-{[(4-ethanesulfonamido-1-fluorocyclohexyl)methyl]amino}piperidin-1-yl)-3-methylimidazo[1,5-a]pyridin-8-yl]-N-ethyl-5-fluoro-N-(isopropyl)benzamide], the IC50 is 107 nM. On the same count and under the same terms, then `CCN(C(=O)c1cc(F)ccc1-c1cc(N2CCN(CC3CCCCC3)CC2)cn2c(C)ncc12)C(C)C` [Compound 58, 2-{6-[4-(cyclohexylmethyl)piperazin-1-yl]-3-methylimidazo[1,5-a]pyridin-8-yl}-N-ethyl-5-fluoro-N-(isopropyl)benzamide], with 124 nM.
